Assay results reported in patent US20220117993A1, “Compounds Useful in HIV Therapy” (GlaxoSmithKline Intellectual Property (No. 2) Limited, priority 2018, published 2022).
pIC50: −log10 of the molar value. Like-named read-outs stand apart in the source and are kept apart here.

How the values were obtained:
[1] = tested on: wild-type NL4-3 replication defective pseudovirus (PSV); test: microbe, parasite or virus in culture; assay type: cell-based; details: NL43, 72 h, U373 cells expressing human CD4 and CXCR4 or CCR5, luciferase signal after 3 days, mean IC50, read-out: WT IC50
[2] = tested on: PSV with methionine 184 to valine (M184V) substitution in the reverse transcriptase gene; test: microbe, parasite or virus in culture; assay type: cell-based, HIV; details: read-out: M184V IC50
[3] = Rat pharmacokinetics, single intramuscular injection; assay type: in vivo, Male Wistar Han rats; details: single IM dose 20 mg/kg, suspension 10 mg/mL; EFdA in blood, FIG. 2 and 3
Description: The pharmacokinetics of Compounds 6 and 21 after a single intramuscular (IM) injection were evaluated in Male Wistar Han rats. The test compound was suspended in a 2% P407, 2% PEG3350, 3.5% Mannitol formulation at 10 mg/mL concentration. A single dose of 20 mg/kg of test compound was injected (2 mL/kg) IM into the right gastrocnemius muscle (n=3). Blood samples were collected via a lateral tail vein at the following time points: Day 1 [30 min, 1 h, 3 h, 5 h, 7 h], Days 2-5, Days 7, 10, 14, 17, 21, 24, 28, 31, 35, 38, 42, 45, 49, 52, 56, 59, 63, 66 and 70, etc. To evaluate test compound and EFdA concentrations, approximately 150 μL of blood was collected into a NaFL/Na2EDTA tube. Exactly 150 μL of blood was then pipetted into a new tube, mixed with 150 μL of 100 mM ammonium acetate pH4, (some of the prodrugs required mixing with 1.5 μL of FA as stabilizer), vortexed, immediately frozen on dry ice and stored at −80° C. until analysis. […] The supernatants were then analyzed by UPLC/MS-MS (Triple Quad™ 6500+). Pharmacokinetic parameters were evaluated using a non-compartmental model of the non-compartmental analysis tool, Pharsight Phoenix WinNonlin® 6.4 software.

[4] = Human immunodeficiency virus 1, 72 h

Structure (SMILES) | pIC50 [1] | pIC50 [2, 4] | pIC50 ([2]; U373 cells expressing human CD4 and CXCR4 or CCR5, luciferase signal after 3 days, mean IC50) | sustained exposure to EFdA out to [3]
C#C[C@]1(CO)O[C@@H](n2cnc3c(N)nc(F)nc32)C[C@@H]1OC(=O)CCCCCCC/C=C\C/C=C\C/C=C\CC [Example 7, (9Z,12Z,15Z)-(2R,3S,5R)-5-(6-amino-2-fluoro-9H-purin-9-yl)-2-ethynyl-2-(hydroxymethyl)tetrahydrofuran-3-yl octadeca-9,12,15-trienoate] | 8.15 | 7.44 | – | –
C#C[C@]1(CO)O[C@@H](n2cnc3c(N)nc(F)nc32)C[C@@H]1OC(=O)CCCCCCCCCCCCC [Example 2, (2R,3S,5R)-5-(6-amino-2-fluoro-9H-purin-9-yl)-2-ethynyl-2-(hydroxymethyl)tetrahydrofuran-3-yl tetradecanoate] | 8.82 | 8.11 | – | –
C#C[C@]1(CO)O[C@@H](n2cnc3c(N)nc(F)nc32)C[C@@H]1OC(=O)Cc1ccccc1 [Example 10, (2R,3S,5R)-5-(6-amino-2-fluoro-9H-purin-9-yl)-2-ethynyl-2-(hydroxymethyl)tetrahydrofuran-3-yl 2-phenylacetate] | 8.14 | 7.58 | – | –
C#C[C@]1(CO)O[C@@H](n2cnc3c(N)nc(F)nc32)C[C@@H]1OC(=O)CCCCCCCCCCCCCCCCCCC [Example 6, (2R,3S,5R)-5-(6-amino-2-fluoro-9H-purin-9-yl)-2-ethynyl-2-(hydroxymethyl)tetrahydrofuran-3-yl icosanoate] | 6.20 | 5.48 | – | –
C#C[C@]1(CO)O[C@@H](n2cnc3c(NC(=O)CCCCCCCCCCCCC)nc(F)nc32)C[C@@H]1OC(C)=O [Example 14, (2R,3S,5R)-2-ethynyl-5-(2-fluoro-6-tetradecanamido-9H-purin-9-yl)-2-(hydroxymethyl)tetrahydrofuran-3-yl acetate] | 7.94 | 7.17 | – | –
C#C[C@]1(CO)O[C@@H](n2cnc3c(N)nc(F)nc32)C[C@@H]1O [EFdA, 4′-ethynyl-2-fluoro-2′-deoxyadenosine, reference compound] | 8.19 | – | 7.45 | –
C#C[C@]1(CO)O[C@@H](n2cnc3c(N)nc(F)nc32)C[C@@H]1OC(=O)CC(C)(C)c1c(C)cc(C)cc1OC(C)=O [Example 21, (2R,3S,5R)-5-(6-amino-2-fluoro-9H-purin-9-yl)-2-ethynyl-2-(hydroxymethyl)tetrahydrofuran-3-yl 3-(2-acetoxy-4,6-dimethylphenyl)-3-methylbutanoate] | – | – | – | does not afford a sustained release profile
C#C[C@]1(CO)O[C@@H](n2cnc3c(NC(=O)CCCCCCCCC)nc(F)nc32)C[C@@H]1OC(=O)CCCCCCCCC [Example 27, (2R,3S,5R)-5-(6-decanamido-2-fluoro-9H-purin-9-yl)-2-ethynyl-2-(hydroxymethyl)tetrahydrofuran-3-yl decanoate] | 8.17 | 7.54 | – | –
